In test [1] the target is T1, interaction between GMPPNP-bound recombinant K-Ras4B G12C mutant protein and cRAF RAS-binding domain (cRAF-RBD) (Homo sapiens, UniProt P01116, G12C).
T1 construct: His-tag (N)
Put plainly: Inhibitory activity on interaction between KRAS G12C and cRAF (Alpha technology). Conditions: Table 2-1. An outline of the steps:
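Alpha signal measured 1.5 h after adding cRAF-RBD (aa 50-132) and detection reagents to GMPPNP-bound KRAS G12C (aa 1-169) pretreated 1 h at 25° C with compound (pH 7.5 buffer). 0% inhibition = DMSO, 100% = GDP-loaded KRAS; IC50 by curve fit.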

Test [2] concerns MIA PaCa-2 cells. Put plainly: Growth inhibition activity on KRAS-G12C mutant cell line (CellTiter-Glo 3D). In kind it is cell-based, human. Conditions: Homo sapiens, MIA PaCa-2, 72 h, MIA PaCa-2, 3-day culture with compound; Table 3-1. An outline of the steps: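 IC50 (nM) derived from inhibition of luminescence (CellTiter-Glo 3D) relative to compound-free wells. Cells were seeded in U-bottom plates, grown 1 day, then exposed to compound for 3 days at 37 °C with 0.2% final DMSO.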

[3] abbreviates: GMPPNP-bound KRAS G12C incubated with compound 25° C. 1 hour, read-out: IC50.
Where [4] appears, read: IC50, GMPPNP-bound KRAS G12C incubated with compound 25° C. 1 hour.

SMILES strings stand for the structures. Like-named read-outs stand apart in the source and are kept apart here.

T1 sequence (P01116 with tags, fused parts or gaps isoform P01116-2 G12C): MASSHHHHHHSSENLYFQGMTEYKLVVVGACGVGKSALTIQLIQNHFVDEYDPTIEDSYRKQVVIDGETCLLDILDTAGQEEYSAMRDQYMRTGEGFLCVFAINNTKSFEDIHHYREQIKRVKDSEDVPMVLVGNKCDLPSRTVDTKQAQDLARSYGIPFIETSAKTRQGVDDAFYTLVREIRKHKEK

For orientation: IC50 means the concentration needed to halve the response being measured. On to `Cn1cnc2c3c(c(C(F)(F)F)cc21)-c1cccn2c(C(=O)c4cc(F)c(NC(=O)/C=C/CNC56CCC(CC5)OC6)c(F)c4)cc(c12)CCO3` [Example 125], for which the IC50 was determined as 3.75 nM in test [1] (setting [3]) and 9.06 nM in test [2].
The like results for `COCCNC/C=C/C(=O)Nc1c(F)cc(C(=O)c2cc3c4c(cccn24)-c2c(C(F)(F)F)cc4c(ncn4C)c2N(C)CC3)cc1F` [Example 126, (E)-N-(4-(9,12-dimethyl-7-(trifluoromethyl)-9,12,13,14-tetrahydro-imidazo[4″,5″:5′,6′]benzo-[1′,2′:2,3]azocino[4,5,6-hi]indolizine-2-carbonyl)-2,6-difluorophenyl)-4-((2-methoxyethyl)amino)but-2-enamide] were, in that order, 18 nM and 14.3 nM.
The like results for `COCC1(NC/C=C/C(=O)Nc2c(F)cc(C(=O)c3cc4c5c(cccn35)-c3c(C(F)(F)F)cc5c(ncn5C)c3N(C)CC4)cc2F)CCCC1` [Example 127, (E)-N-(4-(9,12-dimethyl-7-(trifluoromethyl)-9,12,13,14-tetrahydro-imidazo[4″,5″:5′,6′]benzo-[1′,2′:2,3]azocino[4,5,6-hi]indolizine-2-carbonyl)-2,6-difluorophenyl)-4-((1-(methoxymethyl)cyclo-pentyl)amino)but-2-en-amide] were, in that order, 16.8 nM and 22.5 nM.
In the same order, the values of `COC[C@H](CO)NC/C=C/C(=O)Nc1c(F)cc(C(=O)c2cc3c4c(cccn24)-c2c(C(F)(F)F)cc4c(ncn4C)c2N(C)CC3)cc1F` [Example 128, (S,E)-N-(4-(9,12-dimeth-yl-7-(trifluoromethyl)-9,12,13,14-tetrahydro-imidazo[4″,5″:5′,6′]benzo-[1′,2′:2,3]azocino[4,5,6-hi]indolizine-2-carbonyl)-2,6-difluorophenyl)-4-((1-hydroxy-3-methoxy-propan-2-yl)amino)but-2-enamide] are 18.8 nM and 11.8 nM.
Turning to `CC1Cc2cc(C(=O)c3cc(F)c(NC(=O)/C=C/CNC4(C)COC4)c(F)c3)n3cccc(c23)-c2c(C(F)(F)F)cc3c(ncn3C)c2O1` (centres unmarked) [Example 130, (E)-N-(4-(9,13-dimethyl-7-(trifluoromethyl)-13,14-dihydro-9H-imidazo[4″,5″:5′,6′]benzo[1′,2′:2,3]oxocino[4,5,6-hi]indolizine-2-carbonyl)-2,6-difluorophenyl)-4-((3-methyloxetan-3-yl)amino)but-2-enamide], the IC50 in test [1] (setting [3]) was 41.4 nM; in test [2] it was 82.8 nM.
For `Cc1cc2c(nc(C)n2C)c2c1-c1cccc3c(C(=O)c4cc(F)c(NC(=O)/C=C/CN5CC[C@H]5CO)c(F)c4)cn(c13)CCN2C` [Example 132, (S,E)-N-(2,6-difluoro-4-(6,8,9,11-tetramethyl-8,11,12,13-tetrahydro-imidazo[4″,5″:5′,6′]-benzo[1′,2′:5,6][1,4]-diazocino[7,8,1-hi]indole-2-carbonyl)phenyl)-4-(2-(hydroxymethyl)azetidin-1-yl)but-2-enamide], the IC50 in test [1] (setting [4]) worked out at 10.8 nM; in test [2], 16.7 nM.
On to `COc1cc2c(nc(C)n2C)c2c1-c1cccn3c(C(=O)c4cc(F)c(NC(=O)/C=C/CN[C@@H]5CCCOC5)c(F)c4)cc(c13)CCN2C` [Example 133], for which the IC50 in test [1] (setting [3]) came to 11.4 nM; in test [2] it was 6.45 nM.
In the same order, the values of `Cc1cc2c(ncn2C)c2c1-c1cccn3c(C(=O)c4cc(F)c(NC(=O)/C=C/CNC56CCC(CC5)OC6)c(F)c4)cc(c13)CCN2C` [Example 134] are 31 nM and 244 nM.
For the compound `Cc1cc2c(nc(C)n2C)c2c1-c1cccc3c(C(=O)c4cc(F)c(NC(=O)/C=C/CN[C@H]5C[C@H]6CC[C@@H]5O6)c(F)c4)cn(c13)CCN2C` [Example 136], the IC50 in test [1] (setting [4]) was determined as 26.4 nM; in test [2], 36.1 nM.
With `Cc1nc2c3c(c(C(F)(F)F)cc2n1C)-c1cccn2c(C(=O)c4cc(F)c(NC(=O)/C=C/CN[C@@H]5COC[C@H]5O)c(F)c4)cc(c12)CCN3C` [Example 137], the IC50 in test [1] (setting [3]) was 33.5 nM; in test [2] it was 14.9 nM.
In the same order, the values of `CN1CCc2cc(C(=O)c3cc(F)c(NC(=O)C=CCNC4COCC4O)c(F)c3)n3cccc(c23)-c2c(C(F)(F)F)cc3c(ncn3C)c21` [Example 138, (E)-N-(4-(9,12-dimethyl-7-(trifluoromethyl)-9,12,13,14-tetrahydro-imidazo[4″,5″:5′,6′]benzo-[1′,2′:2,3]azocino[4,5,6-hi]indolizine-2-carbonyl)-2,6-difluorophenyl)-4-(((3R,4S)-4-hydroxytetra-hydrofuran-3-yl)amino)-but-2-enamide] are 47.2 nM and 30.8 nM.
Turning to `Cc1cc2c(nc(C)n2C)c2c1-c1cccc3c(C(=O)c4cc(F)c(NC(=O)/C=C/CN5CC[C@H]5C(C)(C)O)c(F)c4)cn(c13)CCN2C` [Example 139, (S,E)-N-(2,6-difluoro-4-(6,8,9,11-tetramethyl-8,11,12,13-tetrahydro-imidazo[4″,5″:5′,6′]benzo-[1′,2′:5,6][1,4]diazocino-[7,8,1-hi]indole-2-carbon-yl)phenyl)-4-(2-(2-hydroxypropan-2-yl)-azetidin-1-yl)but-2-en-amide], the results for the IC50 in test [1] (setting [4]) and in test [2] were 59 nM and 57.9 nM, respectively.
The like results for `Cc1cc2c(nc(C)n2C)c2c1-c1cccc3c(C(=O)c4cc(F)c(NC(=O)/C=C/CN[C@H]5[C@@H]6COC[C@@H]65)c(F)c4)cn(c13)CCN2C` [Example 143, (E)-4-(((1R,5S,6r)-3-oxa-bicyclo[3.1.0]hexan-6-yl)amino)-N-(2,6-difluoro-4-(6,8,9,11-tetramethyl-8,11,12,13-tetrahydro-imidazo[4″,5″:5′,6′]benzo-[1′,2′:5,6][1,4]diazocino-[7,8,1-hi]indole-2-carbon-yl)phenyl)but-2-enamide] were, in that order, 17.8 nM and 47.7 nM.
As to `Cc1c2cc(C(F)(F)F)c3c(c2nn1C)N(C)CCc1cc(C(=O)c2cc(F)c(NC(=O)/C=C/CNC4(C)COC4)c(F)c2)n2cccc-3c12` [Example 146, (E)-N-(2,6-difluoro-4-(9,10,12-trimethyl-7-(trifluoromethyl)-10,12,13,14-tetrahydroindolizino[8′,1′:4,5,6]azocino[3,2-g]indazole-2-carbonyl)phenyl)-4-((3-methyloxetan-3-yl)amino)but-2-enamide], the results for the IC50 in test [1] (setting [3]) and in test [2] were 20.4 nM and 19.6 nM, respectively.
In the same order, the values of `Cn1cnc2c3c(c(C(F)(F)F)cc21)-c1cccn2c(C(=O)c4cc(F)c(NC(=O)/C=C/CN[C@H]5[C@@H]6COC[C@@H]65)c(F)c4)cc(c12)CCO3` [Example 147, (E)-4-(((1R,5S,6r)-3-oxa-bicyclo[3.1.0]hexan-6-yl)amino)-N-(2,6-difluoro-4-(9-methyl-7-(trifluoro-methyl)-13,14-dihydro-9H-imidazo[4″,5″:5′,6′]-benzo[1′,2′:2,3]oxocino-[4,5,6-hi]indolizine-2-carbonyl)phenyl)but-2-enamide] are 7.49 nM and 15.3 nM.
In the same order, the values of `Cc1nc2c3c(c(C(F)(F)F)cc2n1C)-c1cccn2c(C(=O)c4cc(F)c(NC(=O)C=CCNC5CCOC5)c(F)c4)nc(c12)CCN3C` [Example 148, (S,E)-N-(2,6-difluoro-4-(8,9,11-trimethyl-6-(trifluoromethyl)-8,11,12,13-tetrahydro-1,2a,8,10,11-pentaazacycloocta[1,2,3-cd:5,4-e′]diindene-2-carbonyl)phenyl)-4-((tetrahydrofuran-3-yl)amino)but-2-enamide] are 23.2 nM and 19.1 nM.
In the same order, the values of `Cn1cnc2c3c(c(C(F)(F)F)cc21)-c1cccn2c(C(=O)c4cc(F)c(NC(=O)/C=C/CN5CCCC5)c(F)c4)cc(c12)CCO3` [Example 149, (E)-N-(2,6-difluoro-4-(9-methyl-7-(trifluorometh-yl)-13,14-dihydro-9H-imidazo[4″,5″:5′,6′]benzo-[1′,2′:2,3]oxocino[4,5,6-hi]indolizine-2-carbonyl)-phenyl)-4-(pyrrolidin-1-yl)but-2-enamide] are 23.7 nM and 23.4 nM.
Regarding `Cn1cnc2c3c(c(C(F)(F)F)cc21)-c1cccn2c(C(=O)c4cc(F)c(NC(=O)/C=C/CN5CC[C@H](O)C5)c(F)c4)cc(c12)CCO3` [Example 150, (S,E)-N-(2,6-difluoro-4-(9-methyl-7-(trifluoro-methyl)-13,14-dihydro-9H-imidazo[4″,5″:5′,6′]-benzo[1′,2′:2,3]oxocino-[4,5,6-hi]indolizine-2-carbonyl)phenyl)-4-(3-hydroxypyrrolidin-1-yl)-but-2-enamide], the IC50 amounted to 17.1 nM in test [1] (setting [3]) and 31.2 nM in test [2].
As for `Cn1cnc2c3c(c(C(F)(F)F)cc21)-c1cccn2c(C(=O)c4cc(F)c(NC(=O)/C=C/CN5CC[C@@H](O)C5)c(F)c4)cc(c12)CCO3` [Example 151, (R,E)-N-(2,6-difluoro-4-(9-methyl-7-(trifluoro-methyl)-13,14-dihydro-9H-imidazo[4″,5″:5′,6′]-benzo[1′,2′:2,3]oxocino-[4,5,6-hi]indolizine-2-carbonyl)phenyl)-4-(3-hydroxypyrrolidin-1-yl)-but-2-enamide], the IC50 in test [1] (setting [3]) was 15.5 nM; in test [2], 33.9 nM.

Source of the values: US20240262842A1, “SMALL MOLECULE INHIBITORS OF KRAS G12C MUTANT” (Merck Sharp & Dohme LLC, priority 2021, published 2024).
